Drawing on ChEMBL document CHEMBL2396617, “Activity-lipophilicity relationship studies on P-gp ligands designed as simplified tariquidar bulky fragments” (Bioorg Med Chem Lett, 2013), this text covers Activity, Ratio and EC50 for 6 compounds.

As a reminder, the EC50 is the midpoint of the concentration-response curve.

SMILES strings stand for the structures. The source made the active and inactive calls. No cut-off for these calls is given here. Where only a bound is given, the exact number is not on record here.

The test system of one data set is MDCK. As to the kind of experiment: Activation of ATPase activity of P-glycoprotein (unknown origin) expressed in MDCK cells assessed as reduction of reduction of ATP level after 2 hrs by luminescence assay. The format is cell-based. To be noted: Homo sapiens.
A short description of data set [1]: P-glycoprotein-mediated transport in human Caco2 cells assessed as efflux ratio of apparent permeability from basolateral to apical over apical to basolateral after 120 mins. As to conditions: caco-2, 2 h. The format is ADME, cell-based.
A short description of data set [2]: Inhibition of P-glycoprotein (unknown origin) expressed in MDCK cells assessed as reduction of calcein-AM transport after 30 mins by fluorescence assay. The format is cell-based, Homo sapiens.
For data set [3], the target named is T1, Broad substrate specificity ATP-binding cassette transporter ABCG2 (Homo sapiens, UniProt Q9UNQ0).
T1 sequence (Q9UNQ0 whole entry): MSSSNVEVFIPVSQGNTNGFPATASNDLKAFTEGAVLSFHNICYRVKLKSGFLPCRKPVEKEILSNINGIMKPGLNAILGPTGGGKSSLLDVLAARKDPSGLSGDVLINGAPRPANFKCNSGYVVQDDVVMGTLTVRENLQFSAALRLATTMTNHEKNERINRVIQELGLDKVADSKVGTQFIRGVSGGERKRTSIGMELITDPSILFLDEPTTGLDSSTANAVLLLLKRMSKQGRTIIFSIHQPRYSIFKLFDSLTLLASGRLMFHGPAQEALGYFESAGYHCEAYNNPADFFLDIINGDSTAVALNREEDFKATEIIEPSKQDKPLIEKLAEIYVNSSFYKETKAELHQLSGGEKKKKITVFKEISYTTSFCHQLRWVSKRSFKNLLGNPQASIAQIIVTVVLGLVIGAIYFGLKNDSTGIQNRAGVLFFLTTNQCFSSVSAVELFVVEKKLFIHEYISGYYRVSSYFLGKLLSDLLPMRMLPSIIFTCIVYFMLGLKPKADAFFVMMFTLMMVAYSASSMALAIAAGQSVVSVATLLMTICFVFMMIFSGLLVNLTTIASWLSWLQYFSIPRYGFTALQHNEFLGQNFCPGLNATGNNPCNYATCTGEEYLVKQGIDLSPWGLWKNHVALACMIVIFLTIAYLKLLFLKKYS
Put plainly: Inhibition of BCRP (unknown origin) expressed in MDCK cells assessed as reduction of […] transport after 30 mins by fluorescence assay. Format: cell-based.

Data set [4] has as its target Multidrug resistance-associated protein 1 (Homo sapiens, UniProt P33527). Put plainly: Inhibition of MRP1 (unknown origin) expressed in MDCK cells assessed as reduction of calcein-AM transport after 30 mins by fluorescence assay. The format is cell-based.

Sequence of Multidrug resistance-associated protein 1 (P33527 whole entry): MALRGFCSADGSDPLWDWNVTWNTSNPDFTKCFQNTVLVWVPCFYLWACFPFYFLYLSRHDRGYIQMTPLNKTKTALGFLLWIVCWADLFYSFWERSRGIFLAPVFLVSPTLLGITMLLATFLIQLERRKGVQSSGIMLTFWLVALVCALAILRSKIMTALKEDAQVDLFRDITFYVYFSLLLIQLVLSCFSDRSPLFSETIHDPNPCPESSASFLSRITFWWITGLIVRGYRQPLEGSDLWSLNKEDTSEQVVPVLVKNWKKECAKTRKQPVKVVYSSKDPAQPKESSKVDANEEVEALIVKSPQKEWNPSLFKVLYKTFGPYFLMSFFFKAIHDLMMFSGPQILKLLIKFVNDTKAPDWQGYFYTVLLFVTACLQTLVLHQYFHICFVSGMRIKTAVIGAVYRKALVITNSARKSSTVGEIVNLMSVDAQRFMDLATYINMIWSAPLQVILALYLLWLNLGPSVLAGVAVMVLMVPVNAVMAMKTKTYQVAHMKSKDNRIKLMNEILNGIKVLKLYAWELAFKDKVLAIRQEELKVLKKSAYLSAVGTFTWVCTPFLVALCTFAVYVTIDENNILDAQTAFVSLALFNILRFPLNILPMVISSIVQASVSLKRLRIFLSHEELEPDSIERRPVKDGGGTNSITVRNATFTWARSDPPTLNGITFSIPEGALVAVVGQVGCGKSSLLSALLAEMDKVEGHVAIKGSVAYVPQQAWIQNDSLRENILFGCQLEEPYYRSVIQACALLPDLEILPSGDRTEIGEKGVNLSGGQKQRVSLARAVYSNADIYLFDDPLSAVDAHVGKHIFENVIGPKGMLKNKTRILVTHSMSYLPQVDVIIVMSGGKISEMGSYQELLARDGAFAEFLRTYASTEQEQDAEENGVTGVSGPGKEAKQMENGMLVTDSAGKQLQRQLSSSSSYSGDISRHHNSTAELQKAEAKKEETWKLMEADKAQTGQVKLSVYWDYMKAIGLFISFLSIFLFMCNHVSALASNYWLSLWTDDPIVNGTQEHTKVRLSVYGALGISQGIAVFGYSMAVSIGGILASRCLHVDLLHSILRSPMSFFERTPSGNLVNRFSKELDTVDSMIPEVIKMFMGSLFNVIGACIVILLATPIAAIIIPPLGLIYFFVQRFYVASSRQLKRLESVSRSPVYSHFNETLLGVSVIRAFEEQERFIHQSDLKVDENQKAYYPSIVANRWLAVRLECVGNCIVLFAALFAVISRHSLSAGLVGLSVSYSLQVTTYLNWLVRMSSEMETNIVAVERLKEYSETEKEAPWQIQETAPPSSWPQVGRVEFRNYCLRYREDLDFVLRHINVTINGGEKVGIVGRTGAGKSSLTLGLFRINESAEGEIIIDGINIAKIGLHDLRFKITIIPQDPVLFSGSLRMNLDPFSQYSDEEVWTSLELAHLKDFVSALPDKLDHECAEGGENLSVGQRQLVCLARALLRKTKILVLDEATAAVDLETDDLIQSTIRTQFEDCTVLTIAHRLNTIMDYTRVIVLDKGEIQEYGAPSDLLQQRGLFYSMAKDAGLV

Consider `COc1cc2c(cc1OC)CN(CCCCCOc1ccc3ccccc3n1)CC2`, for which the outcome in the data set on MDCK was inactive. Besides, in data set [1], the Ratio is reported as 2.9. Besides, the EC50 in data set [2] was 1.2 µM; in data set [3], greater than 100 µM; in data set [4], greater than 100 µM.

On to `COc1cc2c(cc1OC)CN(CCCOc1ccnc3ccccc13)CC2`, for which, in the data set on MDCK, the result was inactive. The concentration for a half-maximal effect (EC50) in data set [2] was 40 µM; in data set [3] it was greater than 100 µM; in data set [4] it was greater than 100 µM.

`COc1cc2c(cc1OC)CN(C(=O)COc1ccc3ccccc3n1)CC2`: the outcome in the data set on MDCK was inactive. The EC50 in data set [2] was 67 µM; in data set [3], greater than 100 µM; in data set [4], greater than 100 µM.

On to `COc1cc2c(cc1OC)CN(CCOc1ccc3ccccc3n1)CC2`, for which the outcome in the data set on MDCK was inactive. The Ratio in data set [1] is reported as 4.6. The concentration giving a half-maximal response (EC50) was 1.3 µM in data set [2], greater than 100 µM in data set [3] and greater than 100 µM in data set [4].

For the compound `COc1cc2c(cc1OC)CN(CCCCOc1ccc3ccccc3n1)CC2`, the outcome in the data set on MDCK was inactive. Besides, in data set [1], the Ratio turned out to be 4.2. The concentration for a half-maximal effect (EC50) in data set [2] was 4.3 µM; in data set [3] it was greater than 100 µM; in data set [4] it was greater than 100 µM.

Consider `COc1cc2c(cc1OC)CN(CCCOc1ccc3ccccc3n1)CC2`, for which, in the data set on MDCK, the result was inactive. Also, the Ratio in data set [1] is on record as 4.4. The EC50 was 6.1 µM in data set [2], greater than 100 µM in data set [3] and greater than 100 µM in data set [4].
